Laboratory results from patent publication US8236754B2, “Methods for improving the structure and function of arterioles” (The Regents of the University of California, priority 2004, dated 2012).
Entries after “also recorded” stand apart in the source; their conditions may differ. Non-standard residues stand in square brackets, D forms with d.

Legend:
mouse facial artery = conditions: published studies; cited from earlier work
[1] = tested on: facial artery of LDL receptor null mice; test: Facial artery ring vasoreactivity, acetylcholine relaxation after oral treatment; type: in vivo; conditions: Western diet, 1 mg/mL in drinking water, six weeks
apoe null mice = conditions: oral DMPC; cited from earlier work
[2] = tested on: brain arterioles of LDL receptor null mice; test: Brain arteriolar wall thickness and lumen diameter by morphometry on H&E sections; type: in vivo; conditions: Western diet 6 weeks, 300 μg/mL in drinking water, D-4F vs scrambled D-4F
Experimental: Female wild-type and LDL receptor null C57BL/6 mice were from Jackson Laboratories (Bar Harbour, Me.). The mice were maintained on a chow diet (Ralston Purina) prior to administration of a Western diet (Teklad/Harlan, Madison Wis., diet No. 88137; 42% fat, 0.15% cholesterol, w/w). For studies of brain arterioles the mice were anesthetized with intramuscular ketamine (100 mg/kg) and acepromazine (2.5 mg/kg) and the heart was perfused via the left ventricle with 25 mL phosphate buffered saline (PBS) containing heparin (10 U/mL) followed by 100 mL of 4% paraformaldehyde (PFA) in PBS at pH 7.4 as described by Fernagut et al. (Fernagut et al. (2002) Neuroscience, 114: 1005-1017; Fernagut et al. (2004) Exp Neurol., 185: 47-62). Brains were quickly removed and stored for 24 hrs in 4% PFA at 4° C. and then transferred to 10% sucrose in PBS (pH 7.4) and left until they sank to the bottom of the solution. The right half of the brains were embedded in OCT (Tissue-Tek; Miles Laboratories Ltd, Elkhart Ind.) and frozen in isopentane at −40° C. and stored at −80° C. until sectioned in a cryostat at −20° C. The frozen brain was cut into 8 μm sections coronally to include the underlying white matter and stained with hematoxylin-eosin (H&E) and for smooth muscle α-actin (Serotec, Raleigh, N.C.). […]
(§1) Morphometry was performed to determine vascular wall thickness for all arterioles that were distended and perpendicularly cross-sectioned. […] A minimum of 10 arteries from each diameter group was examined in the cortical area and the deep white matter regions from each brain, and the wall thickness and wall to lumen ratios determined. The ratio of immunoreactive media thickness to the internal diameter of each vessel was assessed in sections immunostained for smooth muscle α-actin. […] Inter-observer variation was determined by having the three investigators measure the same 20 arterioles for wall thickness and lumen diameter and calculate the wall to lumen ratio. […]

LDL lipid hydroperoxides = conditions: mice, oral D-4F, without changing plasma lipid levels; cited from earlier work
[3] = tested on: brain arteriolar smooth muscle α-actin; test: Brain arteriolar smooth muscle α-actin immunostaining, wall to lumen ratio; type: in vivo; conditions: LDL receptor null mice, Western diet 6 weeks, 300 μg/mL in drinking water; D-4F vs scrambled D-4F
Experimental: Female wild-type and LDL receptor null C57BL/6 mice were from Jackson Laboratories (Bar Harbour, Me.). The mice were maintained on a chow diet (Ralston Purina) prior to administration of a Western diet (Teklad/Harlan, Madison Wis., diet No. 88137; 42% fat, 0.15% cholesterol, w/w). For studies of brain arterioles the mice were anesthetized with intramuscular ketamine (100 mg/kg) and acepromazine (2.5 mg/kg) and the heart was perfused via the left ventricle with 25 mL phosphate buffered saline (PBS) containing heparin (10 U/mL) followed by 100 mL of 4% paraformaldehyde (PFA) in PBS at pH 7.4 as described by Fernagut et al. (Fernagut et al. (2002) Neuroscience, 114: 1005-1017; Fernagut et al. (2004) Exp Neurol., 185: 47-62). […]
as §1

LDL receptor null mice = test: T-maze continuous alternation task (T-CAT), spatial memory; type: in vivo
Experimental: T-maze continuous alternation task (T-CAT) testing took place daily between 9 A.M. and 4 P.M. and was performed by one investigator unaware of the treatment groups. The mice were delivered to the testing room two hours prior to behavioral studies to allow familiarization with the extra-maze visual cues of the room. The T-maze apparatus used in our studies is identical to the one described by Gerlai et al. (Gerlai (1998) Behavioural Brain Research, 95: 91-101) and was made of transparent acrylic walls with a black acrylic bottom. The dimensions of start and goal arms were: length 75 cm, width 12 cm and height 20 cm. The maze was equipped with three removable guillotine doors that could be operated by manual remote control. The testing room was illuminated by ceiling and floor lights and a fan provided a constant background noise. The T-maze was separated from the investigator by a black curtain and the movement of the mice in the maze was observed on a TV monitor and videotaped. After each individual mouse the T-maze was carefully cleaned with Windex spray and dried with paper towels. The T-maze continuous alternation task (T-CAT) limits the handling of mice and permits their exploratory behavior to be carried out undisturbed. The procedure used in this study is identical to that described by Gerlai et al. (Id.) and consisted of one forced and 14 free choice trials. Consecutive choices made by the mice were measured and the alternation rate during the 14 free choice trials was calculated (0%-no alternation, 100%-alternation at each trial, 50%-random choice). The time (in seconds) needed to complete the 15 trials was recorded and analyzed. The T-CAT testing was continuously registered by a video tracking system (SD Instruments Inc., San Diego, Calif.) and stored on a computer. Statistics were performed using StatView software (SAS Institute, Cary, N.C.)

[4] = Plasma lipoprotein and lipid levels; type: in vivo, mice
Experimental: Plasma lipoprotein and lipid levels were determined as described previously (Navab et al. (2004) Circulation, 109:r120-r125; Navab et al. (2005) Arterioscler Thromb Vasc Biol., 25: 1-7).

[5] = LDL receptor null mice, Western diet 6 weeks, 300 μg/mL in drinking water, Mean±SEM

Compound | vasoreactivity of facial arteries (mouse facial artery) | acetylcholine vasorelaxation of facial artery rings [1] | HDL-cholesterol (apoe null mice) | atherosclerosis (apoe null mice) | plasma apoA-I levels (apoe null mice) | brain arteriolar wall thickness [2] | lumen diameters of the brain arterioles [2] | ratio of wall to lumen diameter [2] | LDL lipid hydroperoxides (LDL lipid hydroperoxides) | brain arteriolar wall smooth muscle α-actin content [3] | performance in the T-maze / T-CAT (spatial memory) (LDL receptor null mice; LDL receptor null mice, Western diet, oral treatment) | time to complete the 15 trials (LDL receptor null mice; LDL receptor null mice, Western diet, oral treatment, difference not statistically significant) [s] | performance in the T-maze / T-CAT (spatial memory) (LDL receptor null mice; LDL receptor null mice, Western diet, oral treatment, listed as D4F) | number of spontaneous alternations in the T-maze test (LDL receptor null mice; LDLR−/− mice, Western diet six weeks, 300 μg/mL in drinking water) | difference in plasma total cholesterol, LDL-cholesterol, HDL-cholesterol or triglycerides ([4]; D-4F compared to scrambled D-4F) | HDL cholesterol concentration [4, 5] [mg/dL] | LDL cholesterol concentration [4, 5] [mg/dL] | Triglycerides [4, 5] [mg/dL] | plasma total cholesterol concentration [4, 5]
Ac-D-W-F-K-A-F-Y-D-K-V-A-E-K-F-K-E-A-F-NH2 [4F] (Ac-DWFKAFYDKVAEKFKEAF-NH2) [Peptide 4F] | dramatically improved | – | – | – | – | – | – | – | – | – | – | – | – | – | – | – | – | – | –
CCCCCCCCCCCCCC(=O)OCC(COP(=O)([O-])OCC[N+](C)(C)C)OC(=O)CCCCCCCCCCCCC (racemic) [DMPC, 1,2-ditetradecanoyl-rac-glycerol-3-phosphocholine] | – | significant improvement; also recorded: improves | increase | prevention and regression | increase | – | – | – | – | – | – | – | – | – | – | – | – | – | –
Ac-D-W-F-K-A-F-Y-D-K-V-A-E-K-F-K-E-A-F-NH2 [D-4F] (Ac-[dD][dW][dF][dK][dA][dF][dY][dD][dK][dV][dA][dE][dK][dF][dK][dE][dA][dF]-NH2) [Peptide D-4F, apoA-I mimetic peptide] | improved | – | – | – | – | decreased; also recorded: reduced | no difference | significantly less | decrease | significantly reduced | significantly improved | 548 ± 37 | improvement | significantly improved | no significant difference | 86 ± 6 | 924 ± 76 | 330 ± 25 | 1,076±75 mg/dL
